Measurements from patent US20260028330A1, “HETEROARYL CARBOXAMIDE AND RELATED GPR84 ANTAGONISTS AND USES THEREOF” (LIMINAL BIOSCIENCES LIMITED, priority 2022, published 2026).

Molecular target: T1, human GPR84 receptor (Homo sapiens, UniProt Q9NQS5)
T1 construct: host or cells: HEK293 cells, transient transfection
Experiment: Gαi biosensor BRET assay in transfected HEK293 cells (antagonism of GPR84 agonist ZQ-16)
Assay type: cell-based
Settings: 200 nmol/L ZQ-16; for inhibition at 10 µM: code F = 10 μM; for inhibition at 2 µM: code A = 2 μM
Description: Background—The following assays can be used for determination of GPR84 activation in living HEK293 cells. The Gαi BRET biosensor (Gagnon et al., 2018; Gales et al., 2006. Nat Struct Mol Biol. 13, 778-86; Saulieres et al., 2012. Nat Chem Biol. 8, 622-30) allows to directly monitor GPR84-mediated activation of Gαi. The Gαi biosensor consists of a Rluc8-tagged Gαi2 subunit, a GFP10-tagged Gγ2 subunit, and an untagged Gβ1. Agonist stimulation and GPR84 activation triggers a physical separation between the RLuc8-Gαi donor and the GFP10-Gγ2 acceptor, resulting in a decrease in BRET signal whose amplitude is correlated to ligand efficacy (Gales et al., 2006). Moreover, signaling functions of GPCRs are tightly regulated by endocytosis, the targeting of receptors to endosomes and their sorting to lysosomes or recycling to the plasma membrane. The early endosomes (EEs) trafficking assay (Namkung et al., 2016. Nat Commun. 7, 12178) uses Rluc8-tagged GPR84 and Renilla GFP (rGFP) attached to the FYVE domain from human endofin/zinc finger FYVE domain-containing protein 16, which binds phosphatidylinositol 3-phosphate in EEs. Agonist stimulation of GPR84-Rluc8 leads to trafficking of the receptor to EEs, and ensuing increase of the donor concentration relative to the rGFP-FYVE acceptor anchored in the same cellular compartment, and thus results in an increase in BRET signal.
Plasmids—The cDNA clones for human GPR84 receptor, human Gαi2, Gβ1, and Gγ2 were obtained from the cDNA Resource Center (www.cdna.org). GFP10 (F64L, S147P, S202F and H231L variant of Aequorea victoria Green Fluorescent Protein) gBlocks gene fragments (Integrated DNA Technologies, IA) and linker were inserted in frame at the N-terminus of human Gγ2. Rluc8 (A55T, C124A, S130A, K136R, A143M, M185V, M253L, and S287L variant of the Renilla reniformis luciferase) gBlocks gene fragment was inserted with linkers in frame in between residues 91 and 92 of Gα2 or at the C-terminus of GPR84. The FYVE domain from human endofin (residues Q739 to K806) attached in frame at the C terminus of a humanized Renilla GFP (rGFP), were synthesized as gBlocks gene fragments.
Bioluminescence Resonance Energy Transfer (BRET) Measurement—HEK293 cells were transfected with GPR84-Rluc8 and rGFP-FYVE for the EEs trafficking biosensor or with GPR84, Gαi2-Rluc8, GFP10-Gγ2, and Gβ1 for the Gαi biosensor. The following day, transiently transfected cells were seeded in 96-well white clear bottom microplates coated with poly-D-lysine and left in culture for 24 hours. Cells were washed once with Tyrode's buffer (140 mmol/L NaCl, 1 mmol/L CaCl2, 2.7 mmol/L KCl, 0.49 mmol/L MgCl2, 0.37 mmol/L NaH2PO4, 5.6 mmol/L glucose, 12 mmol/L NaHCO3, and 25 mmol/L HEPES, pH 7.5) before performing assays in Tyrode's buffer. Test compounds were incubated with cells for 5 (Gui) or 15 (EEs) minutes at 37° C. before addition of 200 nmol/L of the GPR84 agonist ZQ-16 (2-(Hexylthio)-6-hydroxy-4(3H)-pyrimidinone) for 5 minutes at room temperature (Gui) or 30 minutes at 37° C. (EEs). The Rluc8 substrate coelenterazine 400A (Prolume, Lakeside, AZ) was added at a final concentration of 5 μmol/L and BRET readings were collected using an Infinite M1000 microplate reader (Tecan, Morrisville, NC). BRET^2 readings between Rluc8 and GFP10 or rGFP were collected by sequential integration of the signals detected in the 370 to 450 nm (Rluc8) and 510 to 540 nm (GFP10, rGFP) windows. The BRET signal was calculated as the ratio of light emitted by acceptor (GFP10, rGFP) over the light emitted by donor (Rluc8). The values were corrected to net BRET by subtracting the background BRET signal obtained in cells transfected with Rluc8 constructs alone. Ligand-promoted net BRET values were calculated by subtracting vehicle-induced net BRET from ligand-induced net BRET.

T1 sequence (Q9NQS5 whole entry): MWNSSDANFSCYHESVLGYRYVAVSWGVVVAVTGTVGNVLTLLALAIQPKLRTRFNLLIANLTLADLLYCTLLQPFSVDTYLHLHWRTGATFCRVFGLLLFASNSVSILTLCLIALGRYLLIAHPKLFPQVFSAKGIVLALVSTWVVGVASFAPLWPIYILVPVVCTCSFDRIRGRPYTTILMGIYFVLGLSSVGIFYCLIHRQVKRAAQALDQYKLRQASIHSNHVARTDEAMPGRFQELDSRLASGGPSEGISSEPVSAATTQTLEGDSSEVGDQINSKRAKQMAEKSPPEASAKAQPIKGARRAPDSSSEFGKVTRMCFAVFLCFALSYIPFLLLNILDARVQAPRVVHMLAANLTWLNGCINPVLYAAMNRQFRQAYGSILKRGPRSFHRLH

SMILES	inhibition at 10 µM (HEK293, single concentration)	other results
CN(C)c1cc(C#CC2CC2)ccc1N(C)C(=O)c1cn(CC2OCC3(CC3)CO2)nn1 [Compound I-1, 1-((5,7-dioxaspiro[2.5]octan-6-yl)methyl)-N-(4-(cyclopropylethynyl)-2-(dimethylamino)phenyl)-N-methyl-1H-1,2,3-triazole-4-carboxamide]	> 75%	IC50: 300 to 1000 nM
Cc1ccc(C#CC2CC2)cc1N(C)C(=O)c1ccc(OCC(=O)N(C)C)nc1C [Compound I-2, N-(5-(cyclopropylethynyl)-2-methylphenyl)-6-(2-(dimethylamino)-2-oxoethoxy)-N,2-dimethylnicotinamide]	≤ 25%	
Cc1ccc(C#CC2CC2)cc1N(C)C(=O)c1ccc(=O)n(CC(=O)N(C)C)c1C [Compound I-3, N-(5-(cyclopropylethynyl)-2-methylphenyl)-1-(2-(dimethylamino)-2-oxoethyl)-N,2-dimethyl-6-oxo-1,6-dihydropyridine-3-carboxamide]	≤ 25%	
Cc1ccc(C#CC2CC2)c2c1N(C(=O)c1cn(CC3OCC4(CC4)CO3)nn1)CC2 [Compound I-4, (1-((5,7-dioxaspiro[2.5]octan-6-yl)methyl)-1H-1,2,3-triazol-4-yl)(4-(cyclopropylethynyl)-7-methylindolin-1-yl)methanone]	≤ 25%	
Cc1cc(C#CC2CC2)cnc1CN(C)c1cn(CC2OCC3(CC3)CO2)nn1 [Compound I-5, 1-((5,7-dioxaspiro[2.5]octan-6-yl)methyl)-N-((5-(cyclopropylethynyl)-3-methylpyridin-2-yl)methyl)-N-methyl-1H-1,2,3-triazol-4-amine]	> 75%	IC50: 300 to 1000 nM
Cc1ccc(C#CC2CC2)cc1Nc1cn(CC(=O)N(C)C)nn1 [Compound I-6, 2-(4-((5-(cyclopropylethynyl)-2-methylphenyl)amino)-1H-1,2,3-triazol-1-yl)-N,N-dimethylacetamide]		inhibition at 2 µM (HEK293, single concentration): ≤ 25%
Cc1ccc(C#CC2CC2)cc1N(C)c1cn(CC(=O)N(C)C)nn1 [Compound I-7, 2-(4-((5-(cyclopropylethynyl)-2-methylphenyl)(methyl)amino)-1H-1,2,3-triazol-1-yl)-N,N-dimethylacetamide]	> 75%	
CN(c1cn(CC2OCC3(CC3)CO2)nn1)c1cc(C#CC2CC2)ccc1Cl [Compound I-8, 1-((5,7-dioxaspiro[2.5]octan-6-yl)methyl)-N-(2-chloro-5-(cyclopropylethynyl)phenyl)-N-methyl-1H-1,2,3-triazol-4-amine]	> 75%	
Cc1ccc(C#CC2CC2)cc1C(=O)Nc1cn(CC2OCC3(CC3)CO2)nn1 [Compound I-9, N-(1-((5,7-dioxaspiro[2.5]octan-6-yl)methyl)-1H-1,2,3-triazol-4-yl)-5-(cyclopropylethynyl)-2-methylbenzamide]		inhibition at 6.7 µM (HEK293, single concentration, code E = 6.7 μM): ≤ 25%
Cc1ccc(C#CC2CC2)cc1CN(C)c1cn(CC2OCC3(CC3)CO2)nn1 [Compound I-10, 1-((5,7-dioxaspiro[2.5]octan-6-yl)methyl)-N-(5-(cyclopropylethynyl)-2-methylbenzyl)-N-methyl-1H-1,2,3-triazol-4-amine]	25 to 50%	
Cc1ccc(C#CC2CC2)cc1NCc1cn(CC2OCC3(CC3)CO2)nn1 [Compound I-11, N-((1-((5,7-dioxaspiro[2.5]octan-6-yl)methyl)-1H-1,2,3-triazol-4-yl)methyl)-5-(cyclopropylethynyl)-2-methylaniline]		inhibition at 2 µM (HEK293, single concentration): ≤ 25%
Cc1ccc(C#CC2CC2)cc1N(C)Cc1cn(CC2OCC3(CC3)CO2)nn1 [Compound I-12, N-((1-((5,7-dioxaspiro[2.5]octan-6-yl)methyl)-1H-1,2,3-triazol-4-yl)methyl)-5-(cyclopropylethynyl)-N,2-dimethylaniline]	25 to 50%	
Cc1ccc(C#CC2CC2)cc1N(C)C(=O)c1cn(CC(=O)N(C)C)nn1 [Compound I-13, N-(5-(cyclopropylethynyl)-2-methylphenyl)-1-(2-(dimethylamino)-2-oxoethyl)-N-methyl-1H-1,2,3-triazole-4-carboxamide]	25 to 50%	
Cc1ccc(C#CC2CC2)cc1NC(=O)c1cn(CC2OCC3(CC3)CO2)nn1 [Compound I-14]	≤ 25%	
Cc1ccc(C#CC2CC2)cc1Nc1cn(CC2OCC3(CC3)CO2)cn1 [Compound I-15]	≤ 25%	
Cc1ccc(C#CC2CC2)cc1C(=O)N(C)c1cn(CC2OCC3(CC3)CO2)nn1 [Compound I-16]	≤ 25%	
Cc1ccc(C#CC2CC2)cc1N(C)C(=O)c1cn(CC2OCC3(CC3)CO2)nn1 [Compound I-17]		IC50: ≤ 300 nM; inhibition at 2 µM (HEK293, single concentration): > 75%
Cc1cc(C#CC2CC2)ccc1NC(=O)c1cn(CC2OCC3(CC3)CO2)nn1 [Compound I-18]	≤ 25%	

SMILES	inhibition at 10 µM (HEK293, single concentration)	other results
Cc1cc(C#CC2CC2)ccc1C(=O)N(C)c1cn(CC2OCC3(CC3)CO2)nn1 [Compound I-19]	50 to 75%	
Cc1cc(C#CC2CC2)ccc1C(=O)Nc1cn(CC2OCC3(CC3)CO2)nn1 [Compound I-20]	≤ 25%	
Cc1cc(C#CC2CC2)ccc1N(C)C(=O)c1cn(CC2OCC3(CC3)CO2)nn1 [Compound I-21]	> 75%	IC50: ≤ 300 nM
Cc1cc(C#CC2CC2)ccc1CN(C)c1cn(CC2OCC3(CC3)CO2)nn1 [Compound I-22]	> 75%	
CN(C(=O)c1cn(CC2OCC3(CC3)CO2)nn1)c1cccc(C#CC2CC2)c1 [Compound I-23]	> 75%	IC50: 300 to 1000 nM
Cc1ccc(C#CC2CC2)cc1N(C)C(=O)c1cn(CCC(=O)N(C)C)nn1 [Compound I-24]	≤ 25%	
O=C(c1cn(CC2OCC3(CC3)CO2)nn1)N1CCc2c(C#CC3CC3)cccc21 [Compound I-25]		inhibition at 2 µM (HEK293, single concentration): ≤ 25%
CN(C)c1ccc(C#CC2CC2)cc1N(C)C(=O)c1cn(CC2OCC3(CC3)CO2)nn1 [Compound I-26]	> 75%	IC50: 300 to 1000 nM
Cc1cc(OCC(=O)N(C)C)ccc1C(=O)N(C)c1cc(C#CC2CC2)ccc1C [Compound I-27]	≤ 25%	
O=C(c1cn(CC2OCC3(CC3)CO2)nn1)N1CCCc2c(C#CC3CC3)cccc21 [Compound I-28]	50 to 75%	
CN(C(=O)c1cn(CC2OCC3(CC3)CO2)nn1)c1ccc(C#CC2CC2)cc1F [Compound I-29]		IC50: ≤ 300 nM; inhibition at 2 µM (HEK293, single concentration): > 75%
Cc1ccccc1NC(=O)c1cn(CC2OCC3(CC3)CO2)nn1 [Compound I-30]	≤ 25%	
CN(C(=O)c1cn(CC2OCC3(CC3)CO2)nn1)c1cc(C#CC2CC2)ccc1F [Compound I-31]	> 75%	IC50: 1000 to 3000 nM
Cc1cc(C#CC2CC2)cc(F)c1N(C)C(=O)c1cn(CC2OCC3(CC3)CO2)nn1 [Compound I-32]	> 75%	IC50: ≤ 300 nM
Cc1ccccc1N(C)C(=O)c1cn(CC2OCC3(CC3)CO2)nn1 [Compound I-33]	≤ 25%	
Cc1ccc(C#CC2CC2)cc1N(C)C(=O)c1ncc(OCC(=O)N(C)C)cc1C [Compound I-34]	≤ 25%	
Cc1ccc(C#CC2CC2)cc1N(C)C(=O)c1c(C)cc(OCC(=O)N(C)C)cc1C [Compound I-35]	25 to 50%	
Cc1ccc(C#CC2CC2)nc1N(C)C(=O)c1cn(CC2OCC3(CC3)CO2)nn1 [Compound I-36]	25 to 50%	
